How the values were obtained:
Experiment in all cases: relative viability (nuclei count vs DMSO), 5 days (fraction); higher = more cells survive
Alisertib + Tozasertib = compound: COc1cc(Nc2ncc3c(n2)-c2ccc(Cl)cc2C(c2c(F)cccc2OC)=NC3)ccc1C(=O)O [Alisertib] + Cc1cc(Nc2cc(N3CCN(C)CC3)nc(Sc3ccc(NC(=O)C4CC4)cc3)n2)n[nH]1 [Tozasertib] (partner 0.1 µM)
Summary of the method: (§1)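 Lung cancer cell lines in 1536-well plates got either a single drug or a fixed anchor-drug dose together with five library-drug doses (not always all listed) in √10 steps, by pin tool, on the day after seeding. Nuclei were counted after 5 days, and relative viability is the treated-to-vehicle ratio of nuclei counts. Values are medians of duplicate plates.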

Alisertib + Foretinib = compound: COc1cc(Nc2ncc3c(n2)-c2ccc(Cl)cc2C(c2c(F)cccc2OC)=NC3)ccc1C(=O)O [Alisertib] + COc1cc2c(Oc3ccc(NC(=O)C4(C(=O)Nc5ccc(F)cc5)CC4)cc3F)ccnc2cc1OCCCN1CCOCC1 [Foretinib] (partner 0.25 µM)
Summary of the method: as §1

Alisertib + AZD7762 = compound: COc1cc(Nc2ncc3c(n2)-c2ccc(Cl)cc2C(c2c(F)cccc2OC)=NC3)ccc1C(=O)O [Alisertib] + NC(=O)Nc1cc(-c2cccc(F)c2)sc1C(=O)N[C@H]1CCCNC1 [AZD7762] (partner 0.2 µM)
Summary of the method: as §1

Alisertib + Luminespib = compound: COc1cc(Nc2ncc3c(n2)-c2ccc(Cl)cc2C(c2c(F)cccc2OC)=NC3)ccc1C(=O)O [Alisertib] + CCNC(=O)c1noc(-c2cc(C(C)C)c(O)cc2O)c1-c1ccc(CN2CCOCC2)cc1 [Luminespib] (partner 0.01 µM)
Summary of the method: as §1

Cell Line	relative viability (Alisertib + Tozasertib; first compound 0.005 µM)	relative viability (Alisertib + Tozasertib; first compound 0.01581 µM)	relative viability (Alisertib + Tozasertib; first compound 0.05 µM)	relative viability (Alisertib + Tozasertib; first compound 0.1581 µM)	relative viability (Alisertib + Tozasertib; first compound 0.5 µM)	relative viability (Alisertib + Foretinib; first compound 0.005 µM)	relative viability (Alisertib + Foretinib; first compound 0.01581 µM)	relative viability (Alisertib + Foretinib; first compound 0.05 µM)	relative viability (Alisertib + Foretinib; first compound 0.1581 µM)	relative viability (Alisertib + Foretinib; first compound 0.5 µM)	relative viability (Alisertib + AZD7762; first compound 0.005 µM)	relative viability (Alisertib + AZD7762; first compound 0.01581 µM)	relative viability (Alisertib + AZD7762; first compound 0.05 µM)	relative viability (Alisertib + AZD7762; first compound 0.1581 µM)	relative viability (Alisertib + AZD7762; first compound 0.5 µM)	relative viability (Alisertib + Luminespib; first compound 0.005 µM)	relative viability (Alisertib + Luminespib; first compound 0.01581 µM)	relative viability (Alisertib + Luminespib; first compound 0.05 µM)	relative viability (Alisertib + Luminespib; first compound 0.1581 µM)	relative viability (Alisertib + Luminespib; first compound 0.5 µM)
NCI-H1793	0.45	0.231	0.269	0.176	0.185	0.715	0.286	0.232	0.194	0.138	0.327	0.166	0.215	0.148	0.115	0.171	0.147	0.156	0.127	0.136
NCI-H1915	0.404	0.272	0.241	0.193	0.179	0.998	0.907	0.431	0.463	0.236	0.531	0.597	0.277	0.254	0.206	0.684	0.452	0.151	0.148	0.185
NCI-H1944	0.242	0.239	0.258	0.195	0.187	0.845	0.818	0.633	0.386	0.227	0.531	0.54	0.421	0.147	0.147	0.778	0.676	0.541	0.411	0.15
NCI-H1975	0.695	0.65	0.336	0.212	0.124	0.816	0.989	0.501	0.204	0.165	0.658	0.618	0.521	0.33	0.192	0.199	0.23	0.213	0.177	0.168
NCI-H1993	0.572	0.542	0.536	0.524	0.512	0.772	0.849	0.525	0.484	0.557	0.85	0.629	0.391	0.324	0.364	0.891	0.791	0.558	0.456	0.492
NCI-H2085	0.723	0.669	0.526	0.476	0.394	1.03	0.812	0.309	0.259	0.228	0.876	0.874	0.882	0.284	0.348	0.419	0.341	0.309	0.342	0.329
NCI-H2087	0.204	0.249	0.126	0.158	0.144	1.12	0.856	0.176	0.172	0.119	1.17	1.29	0.293	0.214	0.185	0.191	0.136	0.155	0.16	0.115
NCI-H2126	0.798	0.637	0.405	0.293	0.288	1.08	1.02	0.455	0.294	0.382	0.936	0.965	0.883	0.466	0.288	0.785	0.834	0.601	0.274	0.285

— the supplement of paper PMC10307832
